This is an account of results in US10973832B2, “Muscarinic M1 receptor agonists” (Heptares Therapeutics Limited, priority 2011, dated 2021).

Holding throughout (type): cell-based
In assay [1] the target is T1, human muscarinic M1 receptor (Homo sapiens, UniProt P11229).
T1 sequence (P11229 1-460): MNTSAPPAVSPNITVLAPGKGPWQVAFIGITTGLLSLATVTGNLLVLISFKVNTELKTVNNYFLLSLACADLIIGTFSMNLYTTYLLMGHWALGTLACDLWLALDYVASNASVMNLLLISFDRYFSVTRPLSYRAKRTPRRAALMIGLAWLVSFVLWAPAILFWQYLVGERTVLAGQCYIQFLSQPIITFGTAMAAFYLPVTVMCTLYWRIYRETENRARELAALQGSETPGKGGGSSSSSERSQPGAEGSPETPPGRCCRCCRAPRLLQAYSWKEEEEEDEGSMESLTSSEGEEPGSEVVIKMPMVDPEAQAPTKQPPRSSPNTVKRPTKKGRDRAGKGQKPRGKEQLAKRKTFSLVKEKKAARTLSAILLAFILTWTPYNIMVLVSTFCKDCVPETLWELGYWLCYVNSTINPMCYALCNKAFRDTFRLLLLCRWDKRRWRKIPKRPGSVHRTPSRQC
The experiment in a line: Phospho-ERK1/2 assay, muscarinic M1. Particulars: for EC50: CHO cells expressing human M1, phospho-ERK1/2 Alphascreen, read-out: pEC50 M1 (converted); for Emax: CHO, read-out: % Emax cf. ACh (M1). The procedure, abridged: (§1)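 Read-out: AlphaScreen SureFire signal for phospho-ERK1/2 in lysates of stably transfected CHO cells, read after 2 h in the dark. Cells were serum-starved overnight and given agonist for 5 min at 37 °C. Values are pEC50 and Emax.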
(In general: Alpha assays give light when donor and acceptor beads are brought close together.)

Assay [2] addresses T2, human muscarinic M2 receptor (Homo sapiens, UniProt P08172).
T2 sequence (P08172 1-466): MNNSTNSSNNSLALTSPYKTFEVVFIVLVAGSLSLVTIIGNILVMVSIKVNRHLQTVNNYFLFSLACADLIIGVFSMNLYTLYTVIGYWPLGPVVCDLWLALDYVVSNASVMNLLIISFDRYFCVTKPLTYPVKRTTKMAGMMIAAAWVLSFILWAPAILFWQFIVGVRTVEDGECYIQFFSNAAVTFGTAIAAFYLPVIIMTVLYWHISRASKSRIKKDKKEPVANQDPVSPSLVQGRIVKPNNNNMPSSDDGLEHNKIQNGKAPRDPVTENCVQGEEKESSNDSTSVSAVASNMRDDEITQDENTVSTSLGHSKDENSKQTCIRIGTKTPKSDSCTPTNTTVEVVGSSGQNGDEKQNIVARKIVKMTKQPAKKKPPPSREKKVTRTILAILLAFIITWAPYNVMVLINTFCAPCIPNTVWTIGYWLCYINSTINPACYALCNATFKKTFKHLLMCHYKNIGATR
Kind of assay: Phospho-ERK1/2 assay, muscarinic M2. Particulars: for EC50: CHO cells expressing human M2, phospho-ERK1/2 Alphascreen, read-out: pEC50 M2 (converted); for Emax: CHO, read-out: % Emax cf. ACh (M2). The procedure, abridged: as §1

For assay [3], the target named is T3, human muscarinic M4 receptor (Homo sapiens, UniProt P08173).
T3 construct: expressed in transfected cells
T3 sequence (P08173 1-479): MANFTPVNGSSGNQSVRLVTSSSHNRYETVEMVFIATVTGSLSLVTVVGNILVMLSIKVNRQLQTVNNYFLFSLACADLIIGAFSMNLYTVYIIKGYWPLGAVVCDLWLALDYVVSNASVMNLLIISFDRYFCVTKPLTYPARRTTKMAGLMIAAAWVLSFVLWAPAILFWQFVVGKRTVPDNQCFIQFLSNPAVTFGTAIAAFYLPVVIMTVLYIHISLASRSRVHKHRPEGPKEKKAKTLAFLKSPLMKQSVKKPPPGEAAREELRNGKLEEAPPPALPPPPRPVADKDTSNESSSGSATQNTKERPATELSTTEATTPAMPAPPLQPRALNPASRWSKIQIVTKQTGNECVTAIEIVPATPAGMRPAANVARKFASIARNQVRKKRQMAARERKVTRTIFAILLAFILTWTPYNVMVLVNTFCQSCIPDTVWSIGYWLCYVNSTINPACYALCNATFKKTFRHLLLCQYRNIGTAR
The experiment in a line: Phospho-ERK1/2 assay, muscarinic M4. Particulars: for EC50: CHO cells expressing human M4, phospho-ERK1/2 Alphascreen, read-out: pEC50 M4 (converted); for Emax: CHO, read-out: % Emax cf. ACh (M4). The procedure, abridged:
as §1

The target in assay [4] is T4, human muscarinic M3 receptor (Homo sapiens, UniProt P20309).
T4 construct: expressed in transfected cells
T4 sequence (P20309 whole entry): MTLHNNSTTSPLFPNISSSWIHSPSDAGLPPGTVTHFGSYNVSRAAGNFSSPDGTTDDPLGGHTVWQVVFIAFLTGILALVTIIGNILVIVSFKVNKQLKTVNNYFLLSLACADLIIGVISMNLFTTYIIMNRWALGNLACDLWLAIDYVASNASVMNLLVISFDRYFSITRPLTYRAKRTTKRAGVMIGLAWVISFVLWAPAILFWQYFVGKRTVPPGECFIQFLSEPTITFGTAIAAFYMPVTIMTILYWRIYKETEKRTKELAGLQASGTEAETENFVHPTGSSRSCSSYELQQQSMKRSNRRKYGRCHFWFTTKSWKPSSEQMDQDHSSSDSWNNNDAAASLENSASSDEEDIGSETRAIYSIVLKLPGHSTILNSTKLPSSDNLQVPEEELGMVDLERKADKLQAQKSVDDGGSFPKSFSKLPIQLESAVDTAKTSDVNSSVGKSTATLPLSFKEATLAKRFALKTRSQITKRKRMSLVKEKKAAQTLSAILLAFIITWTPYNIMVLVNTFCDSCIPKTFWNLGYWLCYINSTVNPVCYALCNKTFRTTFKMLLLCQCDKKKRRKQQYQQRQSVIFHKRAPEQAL
Kind of assay: Phospho-ERK1/2 assay, muscarinic M3. Particulars: for EC50: CHO cells expressing human M3, phospho-ERK1/2 Alphascreen, read-out: pEC50 M3 (converted); for Emax: CHO, read-out: % Emax cf. ACh (M3). The procedure, abridged:
as §1

Broadly, the Emax is the greatest response seen or fitted, relative to the assay's reference.

Consider `CC#CCOC(=O)N1CCCC(N2CCC(OC)(C(=O)NC3(C)CCC3)CC2)CC1` (stereo not shown) [Example 80, but-2-yn-1-yl 4-{4-methoxy-4-[(1-methylcyclobutyl)carbamoyl]piperidin-1-yl}azepane-1-carboxylate], for which the EC50 in assay [1] is 37.2 nM; in assay [2], > 20000 nM; in assay [3], 525 nM; in assay [4], > 20000 nM. For the same compound, the maximal response (Emax) in assay [1] stood at 89%; in assay [2], 15%; in assay [3], 71%; in assay [4], 7%.
Consider `CCOC(=O)N1CCCC(N2CCC(C(=O)NC3(C(F)(F)F)CCC3)CC2)CC1` (stereo not shown) [Example 70], for which the EC50 in assay [1] is 269 nM; in assay [2] it was > 20000 nM; in assay [3] it was 794 nM; in assay [4], > 20000 nM. In addition, the maximal effect (Emax) worked out at 107% in assay [1], 5% in assay [2], 55% in assay [3] and 3% in assay [4].
Turning to `CCOC(=O)N1CCCC(N2CCC(F)(C(=O)NC3CCC3)CC2)CC1` (stereo not shown) [Example 55, ethyl 4-(4-fluoro-4-((cyclobutyl)carbamoyl)piperidin-1-yl)azepane-1-carboxylate], the EC50 in assay [1] was 186 nM; in assay [2] it was > 20000 nM; in assay [3], 1350 nM; in assay [4], > 20000 nM. Also, the maximum response (Emax) in assay [1] is 75%; in assay [2], 17%; in assay [3] it was 69%; in assay [4], 0%.
Take `CCOC(=O)N1CCCC(N2CCC(F)(C(=O)NCC(C)(C)C)CC2)CC1` (stereo not shown) [Example 46, ethyl 4-(4-fluoro-4-((2,2-dimethylpropyl)carbamoyl)pipendin-1-yl)azepane-1-carboxylate]: the EC50 in assay [1] is 105 nM; in assay [2] it was > 20000 nM; in assay [3], 1070 nM; in assay [4], > 20000 nM. The Emax came out at 90% in assay [1], 9% in assay [2], 63% in assay [3] and 1% in assay [4].
Turning to `CCOC(=O)N1CCCC(N2CCC(F)(C(=O)NC3CCCC3)CC2)CC1` (stereo not shown) [Example 51, ethyl 4-(4-fluoro-4-((cyclopentyl)carbamoyl)piperidin-1-yl)azepane-1-carboxylate], the EC50 in assay [1] is 51.3 nM; in assay [2], > 20000 nM; in assay [3] it was 708 nM; in assay [4], > 20000 nM. For the same compound, the Emax in assay [1] amounted to 107%; in assay [2] it was 12%; in assay [3] it was 93%; in assay [4], 6%.
On to `CCOC(=O)N1CCCC(N2CCC(C(=O)NC3(CC)CCC3)CC2)CC1` (stereo not shown) [Example 74], for which the EC50 in assay [1] was 52.5 nM; in assay [2] it was > 20000 nM; in assay [3], 282 nM; in assay [4], > 20000 nM. For the same compound, the maximum response (Emax) in assay [1] came out at 132%; in assay [2] it was 19%; in assay [3] it was 97%; in assay [4], 4%.
Consider `CCOC(=O)N1CCCC(N2CCC(C(=O)NCC(C)(C)C)CC2)CC1` (stereo not shown) [Example 9, ethyl 4-(4-((2,2-dimethylpropyl)carbamoyl)piperidin-1-yl)azepane-1-carboxylate], for which the EC50 in assay [1] was 117 nM; in assay [2], > 20000 nM; in assay [3], 794 nM; in assay [4] it was 13200 nM. The Emax worked out at 125% in assay [1], 6% in assay [2], 41% in assay [3] and 23% in assay [4].
As for `CCOC(=O)N1CCCC(N2CCC(F)(C(=O)NC(C)(C)C3CC3)CC2)CC1` (stereo not shown) [Example 54, ethyl 4-(4-fluoro-4-((2-cyclopropylpropan-2-yl)carbamoyl)piperidin-1-yl)azepane-1-carboxylate], the EC50 in assay [1] was 49 nM; in assay [2], > 20000 nM; in assay [3] it was 229 nM; in assay [4], > 20000 nM. Also, the maximal effect (Emax) was 124% in assay [1], 15% in assay [2], 114% in assay [3] and 6% in assay [4].
